Reference: US20210254056A1, “IDENTIFICATION AND TARGETED MODULATION OF GENE SIGNALING NETWORKS” (CAMP4 THERAPEUTICS CORPORATION, priority 2017, published 2021)
Where two headings read alike, the source gives them in different places.

Test system: hepatocytes
Test: RNA-seq of hepatocytes treated with Phase III failure compounds
Experimental: RNA-seq was performed to determine the effects of the compounds on hepatocytes.
Significance was determined by the criteria of FPKM≥0.5, a log 2(fold-change)≥1, and a […].

## COc1nc(C)cnc1NS(=O)(=O)c1cccnc1-c1ccc(-c2nnco2)cc1 [Zibotentan]
RNA-seq, Phase III failure compounds, hepatocytes, significance: FPKM≥0.5, log 2(fold-change)≥1, q-value≥0.05 (so in the source)
  Number (#) of genes having significantly changed expression: 505
RNA-seq, q≤0.05, hepatocytes, genes in the value or listed in the block
  significant modulation of expression of disease genes: significantly (q≤0.05) modulate expression
Gene B2M, hepatocytes
  B2M expression, RNA-seq result: −0.49
Gene B9D2, hepatocytes
  B9D2 expression, RNA-seq result: −0.43
Gene BAAT, hepatocytes
  BAAT expression, RNA-seq result: 0.17
Gene BBOX1, hepatocytes
  BBOX1 expression, RNA-seq result: −0.45
Gene BBS10, hepatocytes
  BBS10 expression, RNA-seq result: 0.26
Gene BCHE, hepatocytes
  BCHE expression, RNA-seq result: 0.02
Gene BCKDHB, hepatocytes
  BCKDHB expression, RNA-seq result: −0.16
Gene BCKDK, hepatocytes
  BCKDK expression, RNA-seq result: −0.21
Gene BCO1, hepatocytes
  BCO1 expression, RNA-seq result: −0.38
Gene BCR, hepatocytes
  BCR expression, RNA-seq result: 0.14
Gene BLNK, hepatocytes
  BLNK expression, RNA-seq result: 0.09
Gene BLOC1S3, hepatocytes
  BLOC1S3 expression, RNA-seq result: 0.15
Gene BMPR1A, hepatocytes
  BMPR1A expression, RNA-seq result: 0.51
Gene BRAF, hepatocytes
  BRAF expression, RNA-seq result: 0.82
Gene BSCL2, hepatocytes
  BSCL2 expression, RNA-seq result: −3.20
Gene BTD, hepatocytes
  BTD expression, RNA-seq result: 0.19
Gene C4A, hepatocytes
  C4A expression, RNA-seq result: 0.20
Gene C9, hepatocytes
  C9 expression, RNA-seq result: −0.13
Gene C10orf10, hepatocytes
  C10orf10 expression, RNA-seq result: −0.49
Gene C10orf11, hepatocytes
  C10orf11 expression, RNA-seq result: −0.62
Gene C15orf41, hepatocytes
  C15orf41 expression, RNA-seq result: 0.50
Gene CA2, hepatocytes
  CA2 expression, RNA-seq result: −0.44
Gene CA5A, hepatocytes
  CA5A expression, RNA-seq result: 0.23
Gene CA12, hepatocytes
  CA12 expression, RNA-seq result: 0.06
Gene CAV1, hepatocytes
  CAV1 expression, RNA-seq result: 0.15
Gene CCND1, hepatocytes
  CCND1 expression, RNA-seq result: 0.25
Gene CD46, hepatocytes
  CD46 expression, RNA-seq result: 0.05
Gene CD81, hepatocytes
  CD81 expression, RNA-seq result: −0.76
Gene CD320, hepatocytes
  CD320 expression, RNA-seq result: −0.95
Gene CDAN1, hepatocytes
  CDAN1 expression, RNA-seq result: 0.10
Gene CDH1, hepatocytes
  CDH1 expression, RNA-seq result: 0.50
Gene CEP19, hepatocytes
  CEP19 expression, RNA-seq result: −0.43
Gene CEP83, hepatocytes
  CEP83 expression, RNA-seq result: 0.33
Gene CEP164, hepatocytes
  CEP164 expression, RNA-seq result: 0.05
Gene CEP290, hepatocytes
  CEP290 expression, RNA-seq result: 0.01
Gene CFB, hepatocytes
  CFB expression, RNA-seq result: −0.28
Gene CFHR2, hepatocytes
  CFHR2 expression, RNA-seq result: −0.93
Gene CHRM3, hepatocytes
  CHRM3 expression, RNA-seq result: 0.20
Gene CIDEC, hepatocytes
  CIDEC expression, RNA-seq result: −0.40
Gene CLDN1, hepatocytes
  CLDN1 expression, RNA-seq result: 0.16
Gene COG1, hepatocytes
  COG1 expression, RNA-seq result: 0.25

## Cl.OC[C@H]1NC[C@H](O)[C@@H](O)[C@H]1O [Deoxygalactonojirimycin hydrochloride]
RNA-seq of Table 36, FPKM≥0.5, log 2(fold-change)≥1, q-value≤0.05
  significant changes in gene expression: not observed to cause any significant changes in gene expression
RNA-seq, p≤0.05, hepatocytes
  significant modulation of expression of any of the genes analyzed: not observed to significantly modulate expression

## C=CCNC1=C2C[C@@H](C)C[C@H](OC)[C@H](O)[C@@H](C)/C=C(\C)[C@H](OC(N)=O)[C@@H](OC)/C=C\C=C(/C)C(=O)NC(=CC1=O)C2=O [Compound 17-AAG]
  Number (#) of genes having significantly changed expression: 1558

## Cn1cnc2c(F)c(Nc3ccc(Br)cc3Cl)c(C(=O)NOCCO)cc21 [Selumetinib]
  RNA-seq results, CYP2B6 expression: 0.38
  RNA-seq results, CYP2C19 expression: 0.76
  RNA-seq results, CYP2D6 expression: 0.03
  RNA-seq results, CYP3A4 expression: 0.08
  RNA-seq results, CYP7B1 expression: −0.15
  RNA-seq results, CYP39A1 expression: −0.27
  RNA-seq results: CYP2B6 expression: −0.08
  RNA-seq results: CYP2C19 expression: 0.1
  RNA-seq results: CYP2D6 expression: 0.16
  RNA-seq results: CYP3A4 expression: 0.11
  RNA-seq results: CYP7B1 expression: −0.3
  RNA-seq results: CYP39A1 expression: 0.08
Gene A1BG, hepatocytes
  RNA-seq results: A1BG expression: 0.00
Gene AGTR1, hepatocytes
  RNA-seq results: AGTR1 expression: −0.55
Gene AGXT, hepatocytes
  RNA-seq results: AGXT expression: 0.22
Gene AHI1, hepatocytes
  RNA-seq results: AHI1 expression: 0.01
Gene AMPD3, hepatocytes
  RNA-seq results: AMPD3 expression: 0.22
Gene AMT, hepatocytes
  RNA-seq results: AMT expression: 0.29
Gene ANGPTL3, hepatocytes
  RNA-seq results: ANGPTL3 expression: −0.67
Gene ANKS4B, hepatocytes
  RNA-seq results: ANKS4B expression: −0.06
Gene ANKS6, hepatocytes
  RNA-seq results: ANKS6 expression: −0.02
Gene ANPEP, hepatocytes
  RNA-seq results: ANPEP expression: 0.04
Gene AOC2, hepatocytes
  RNA-seq results: AOC2 expression: 0.28
Gene APOA2, hepatocytes
  RNA-seq results: APOA2 expression: −0.45
Gene APOA5, hepatocytes
  RNA-seq results: APOA5 expression: 0.13
Gene APOB, hepatocytes
  RNA-seq results: APOB expression: −0.10
Gene COG5, hepatocytes
  RNA-seq results: COG5 expression: −0.14
Gene COG6, hepatocytes
  RNA-seq results: COG6 expression: 0.1
Gene COL1A1, hepatocytes
  RNA-seq results: COL1A1 expression: 0.41
Gene COX6A1, hepatocytes
  RNA-seq results: COX6A1 expression: 0.02
Gene CP, hepatocytes
  RNA-seq results: CP expression: 0.26
Gene CPS1, hepatocytes
  RNA-seq results: CPS1 expression: 0.52
Gene CPT1A, hepatocytes
  RNA-seq results: CPT1A expression: 0.19
Gene CPT2, hepatocytes
  RNA-seq results: CPT2 expression: −0.2
Gene CROT, hepatocytes
  RNA-seq results: CROT expression: −0.4
Gene CSPP1, hepatocytes
  RNA-seq results: CSPP1 expression: −0.14
Gene CTC1, hepatocytes
  RNA-seq results: CTC1 expression: 0.03
Gene CTDSP2, hepatocytes
  RNA-seq results: CTDSP2 expression: −0.14
Gene CTH, hepatocytes
  RNA-seq results: CTH expression: 0.67
Gene CTNS, hepatocytes
  RNA-seq results: CTNS expression: 0.69
Gene CTSF, hepatocytes
  RNA-seq results: CTSF expression: 0.19
Gene CTSK, hepatocytes
  RNA-seq results: CTSK expression: 0.08
Gene CYB5A, hepatocytes
  RNA-seq results: CYB5A expression: −0.09
Gene CYB5R3, hepatocytes
  RNA-seq results: CYB5R3 expression: 0.1
Gene CYP27A1, hepatocytes
  RNA-seq results: CYP27A1 expression: 0.14
Gene DAO, hepatocytes
  RNA-seq results: DAO expression: −0.11
Gene DBT, hepatocytes
  RNA-seq results: DBT expression: −0.16
Gene DCDC2, hepatocytes
  RNA-seq results: DCDC2 expression: −1.04
Gene DCXR, hepatocytes
  RNA-seq results: DCXR expression: 0.01
Gene FABP1, hepatocytes
  RNA-seq results: FABP1 expression: 0.06
Gene FADD, hepatocytes
  RNA-seq results: FADD expression: −0.08
Gene FAM111A, hepatocytes
  RNA-seq results: FAM111A expression: 0.12
Gene FAM111B, hepatocytes
  RNA-seq results: FAM111B expression: −1.27
Gene FAN1, hepatocytes
  RNA-seq results: FAN1 expression: −0.37
Gene FARS2, hepatocytes
  RNA-seq results: FARS2 expression: −0.21
Gene FASLG, hepatocytes
  RNA-seq results: FASLG expression: −0.55
Gene FGA, hepatocytes
  RNA-seq results: FGA expression: 0.07
Gene FGD1, hepatocytes
  RNA-seq results: FGD1 expression: −0.4
Gene FGFR2, hepatocytes
  RNA-seq results: FGFR2 expression: −0.97
Gene FIG4, hepatocytes
  RNA-seq results: FIG4 expression: 0.29
Gene FIS1, hepatocytes
  RNA-seq results: FIS1 expression: −0.06
Gene FTCD, hepatocytes
  RNA-seq results: FTCD expression: 0.18
Gene FTH1, hepatocytes
  RNA-seq results: FTH1 expression: 0.45
Gene FUCA1, hepatocytes
  RNA-seq results: FUCA1 expression: 0.02
Gene FXN, hepatocytes
  RNA-seq results: FXN expression: −0.33
Gene G6PC3, hepatocytes
  RNA-seq results: G6PC3 expression: −0.17
Gene G6PC, hepatocytes
  RNA-seq results: G6PC expression: 1.05
Gene G6PD, hepatocytes
  RNA-seq results: G6PD expression: 0.7
Gene GALK1, hepatocytes
  RNA-seq results: GALK1 expression: 0.05
Gene GALK2, hepatocytes
  RNA-seq results: GALK2 expression: 0.08
Gene GALT, hepatocytes
  RNA-seq results: GALT expression: 0.37
Gene GATA6, hepatocytes
  RNA-seq results: GATA6 expression: −0.01
Gene GATM, hepatocytes
  RNA-seq results: GATM expression: −0.21
Gene GBA, hepatocytes
  RNA-seq results: GBA expression: 0.33
Gene GBE1, hepatocytes
  RNA-seq results: GBE1 expression: 0.06
Gene GCH1, hepatocytes
  RNA-seq results: GCH1 expression: 0.02
Gene GCKR, hepatocytes
  RNA-seq results: GCKR expression: 0.43
Gene GCLC, hepatocytes
  RNA-seq results: GCLC expression: 0.07
Gene GOSH, hepatocytes
  RNA-seq results: GOSH expression: −0.26
Gene RRM2B, hepatocytes
  RNA-seq results: RRM2B: −0.30
Gene RSAD1, hepatocytes
  RNA-seq results: RSAD1: −0.06
Gene SAMHD1, hepatocytes
  RNA-seq results: SAMHD1: −0.29
Gene SC5D, hepatocytes
  RNA-seq results: SC5D: −0.23
Gene SCARB1, hepatocytes
  RNA-seq results: SCARB1: 0.08
Gene SCN9A, hepatocytes
  RNA-seq results: SCN9A: 0.14
Gene SDCCAG8, hepatocytes
  RNA-seq results: SDCCAG8: −0.25
Gene SEPN1, hepatocytes
  RNA-seq results: SEPN1: −0.10
Gene SERAC1, hepatocytes
  RNA-seq results: SERAC1: −0.29
Gene SERPINA1, hepatocytes
  RNA-seq results: SERPINA1: 0.01
Gene SERPING1, hepatocytes
  RNA-seq results: SERPING1: −0.11
Gene SERPINI1, hepatocytes
  RNA-seq results: SERPINI1: −0.36
Gene SETBP1, hepatocytes
  RNA-seq results: SETBP1: 0.22
Gene SFXN4, hepatocytes
  RNA-seq results: SFXN4: −0.33
Gene SLC10A1, hepatocytes
  RNA-seq results: SLC10A1: 0.00
Gene SLC10A3, hepatocytes
  RNA-seq results: SLC10A3: 0.23
Gene SLC10A5, hepatocytes
  RNA-seq results: SLC10A5: 0.63
Gene SLC10A7, hepatocytes
  RNA-seq results: SLC10A7: −0.35
Gene SLC11A2, hepatocytes
  RNA-seq results: SLC11A2: −0.26
Gene SLC19A1, hepatocytes
  RNA-seq results: SLC19A1: −0.42
Gene SLC19A2, hepatocytes
  RNA-seq results: SLC19A2: 0.22
Gene SLC19A3, hepatocytes
  RNA-seq results: SLC19A3: 0.00
Gene SLC22A1, hepatocytes
  RNA-seq results: SLC22A1: −0.07
Gene SLC22A5, hepatocytes
  RNA-seq results: SLC22A5: 0.32
Gene SLC25A1, hepatocytes
  RNA-seq results: SLC25A1: 0.11
Gene SLC25A10, hepatocytes
  RNA-seq results: SLC25A10: −0.12
Gene SLC25A12, hepatocytes
  RNA-seq results: SLC25A12: −0.11
Gene SLC25A13, hepatocytes
  RNA-seq results: SLC25A13: −0.15
Gene SLC25A15, hepatocytes
  RNA-seq results: SLC25A15: −0.21
Gene SLC25A19, hepatocytes
  RNA-seq results: SLC25A19: −0.35
Gene SLC25A20, hepatocytes
  RNA-seq results: SLC25A20: −0.28
Gene SLC25A29, hepatocytes
  RNA-seq results: SLC25A29: 0.25
Gene SLC25A32, hepatocytes
  RNA-seq results: SLC25A32: −0.44
